Assay results: US10196386B2, “Compounds having muscarinic receptor antagonist and beta2 adrenergic receptor agonist activity” (priority 2016, dated 2019)

Assays:
[1] = biological target: T1, Human M3 receptor (Homo sapiens, UniProt P20309); experiment: biochemical; format: binding; settings: read-out: M3 Range
T1 construct: purchased Perkin Elmer

[2] = biological target: T2, Human β2 adrenoceptor (Homo sapiens, UniProt P07550); experiment: β2 adrenoceptor radioligand binding assay
T2 construct: purchased Perkin Elmer
Protocol: β2 Adrenoceptor Radioligand Binding Assay
Human β2 adrenoceptor membranes (7.5 ug/well) from Perkin Elmer were incubated with 0.3 nM 125-I Cyanopindolol with or without test compounds, or a saturating concentration of s-propranolol (2 μM) for the determination of non-specific binding. The assay was carried out in 96-well polypropylene plates in a volume of 200 ul. The assay buffer used was 25 mM HEPES, 0.5% BSA (w/v), 1 mM EDTA, 0.02% ascorbic acid (v/v), (pH 7.4). The final assay concentration of DMSO was 0.5% (v/v). The plates were sealed and incubated for 1 h at room temperature on an orbital shaker (slow speed). Membranes were harvested onto 96-well unifilter GF/C filter plates pre-treated with 0.5% polyethyleneimine (v/v), using a filter manifold, washed six times with 200 ul of wash buffer containing 10 mM HEPES and 500 mM NaCl. The plates were dried before addition of 50 μl of microscint-0, sealed then read in a Trilux Microbeta scintillation counter. IC50 values are determined from competition curves using a non-linear curve fitting program. Ki values were calculated from IC50 values by the Cheng and Prusoff equation.

T2 sequence (P07550 whole entry): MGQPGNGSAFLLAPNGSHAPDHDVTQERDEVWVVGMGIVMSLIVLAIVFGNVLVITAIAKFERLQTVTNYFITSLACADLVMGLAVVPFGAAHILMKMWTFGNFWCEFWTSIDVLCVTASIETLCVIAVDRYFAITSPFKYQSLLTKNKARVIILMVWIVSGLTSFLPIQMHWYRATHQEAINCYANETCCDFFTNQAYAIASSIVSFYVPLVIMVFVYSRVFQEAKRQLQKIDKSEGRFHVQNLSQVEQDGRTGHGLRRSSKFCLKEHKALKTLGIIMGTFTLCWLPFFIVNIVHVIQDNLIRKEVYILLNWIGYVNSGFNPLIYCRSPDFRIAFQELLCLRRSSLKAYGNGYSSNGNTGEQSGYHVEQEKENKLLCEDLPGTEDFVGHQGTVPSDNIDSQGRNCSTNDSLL
T1 sequence (P20309 whole entry): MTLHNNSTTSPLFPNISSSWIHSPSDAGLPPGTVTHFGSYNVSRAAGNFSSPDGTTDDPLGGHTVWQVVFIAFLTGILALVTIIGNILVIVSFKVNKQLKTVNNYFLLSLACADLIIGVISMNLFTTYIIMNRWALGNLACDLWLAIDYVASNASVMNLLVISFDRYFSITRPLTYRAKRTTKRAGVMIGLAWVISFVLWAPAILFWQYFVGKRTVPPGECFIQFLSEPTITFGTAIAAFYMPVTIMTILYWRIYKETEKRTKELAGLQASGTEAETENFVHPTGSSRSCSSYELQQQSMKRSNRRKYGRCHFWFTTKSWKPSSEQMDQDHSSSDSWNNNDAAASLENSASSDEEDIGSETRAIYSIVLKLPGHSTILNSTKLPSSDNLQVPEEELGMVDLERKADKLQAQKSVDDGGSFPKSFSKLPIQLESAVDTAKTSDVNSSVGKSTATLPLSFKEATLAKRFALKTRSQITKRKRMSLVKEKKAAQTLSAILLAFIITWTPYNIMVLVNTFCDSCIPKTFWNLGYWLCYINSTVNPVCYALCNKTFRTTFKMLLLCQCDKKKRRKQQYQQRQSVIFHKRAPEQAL

| SMILES | IC50 [1] | IC50 [2] |
| --- | --- | --- |
| O=C(NCc1ccc(-c2cccc([C@](O)(C(=O)OCC3CCN(Cc4ccccc4)CC3)c3ccccc3)c2)s1)c1cccc(CNC[C@H](O)c2ccc(O)c3[nH]c(=O)ccc23)c1 [Compound 1N, (1-Benzylpiperidin-4-yl)methyl (S)-2-hydroxy-2-(3-(5-((3-((((R)-2-hydroxy-2-(8-hydroxy-2-oxo-1,2-dihydroquinolin-5-yl)ethyl)amino)methyl)-benzamido)methyl)thiophen-2-yl)phenyl)-2-phenylacetate] | 0.3 to 3 nM | 0.3 to 3 nM |
| Cc1cc(C(=O)NCc2ccc(-c3cccc([C@](O)(C(=O)OCC4CCN(Cc5ccccc5)CC4)c4ccccc4)c3)s2)c(F)cc1CNC[C@H](O)c1ccc(O)c2[nH]c(=O)ccc12 [Compound 1O, (1-Benzylpiperidin-4-yl)methyl (S)-2-(3-(5-((2-fluoro-4-((((R)-2-hydroxy-2-(8-hydroxy-2-oxo-1,2-dihydroquinolin-5-yl)ethyl)amino)methyl)-5-methylbenzamido)methyl)thiophen-2-yl)phenyl)-2-hydroxy-2-phenylacetate] | > 3 nM | < 0.3 nM |
| O=C(Cc1ccc(CNC[C@H](O)c2ccc(O)c3[nH]c(=O)ccc23)cc1)NCc1ccc(-c2cccc([C@](O)(C(=O)OCC3CCN(Cc4ccccc4)CC3)c3ccccc3)c2)s1 [Compound 1P, (1-Benzylpiperidin-4-yl)methyl (S)-2-hydroxy-2-(3-(5-((2-(4-((((R)-2-hydroxy-2-(8-hydroxy-2-oxo-1,2-dihydroquinolin-5-yl)ethyl)amino)methyl)-phenyl)acetamido)methyl)thiophen-2-yl)phenyl)-2-phenylacetate] | 0.3 to 3 nM | 0.3 to 3 nM |
| O=C(NCc1ccc(-c2cccc([C@](O)(C(=O)OCC3CCN(Cc4ccccc4)CC3)c3ccccc3)c2)s1)c1ccc(CNC[C@H](O)c2ccc(O)c3[nH]c(=O)ccc23)cn1 [Compound 1Q, (1-Benzylpiperidin-4-yl)methyl (S)-2-hydroxy-2-(3-(5-((5-((((R)-2-hydroxy-2-(8-hydroxy-2-oxo-1,2-dihydroquinolin-5-yl)ethyl)amino)methyl)-picolinamido)methyl)thiophen-2-yl)phenyl)-2-phenylacetate] | 0.3 to 3 nM | < 0.3 nM |
| O=C(NCc1ccc(-c2cccc([C@](O)(C(=O)OCC3CCN(Cc4ccccc4)CC3)c3ccccc3)c2)s1)c1ccc(CNC[C@H](O)c2ccc(O)c3[nH]c(=O)ccc23)c(Cl)c1 [Compound 1R, (1-Benzylpiperidin-4-yl)methyl (S)-2-(3-(5-((3-chloro-4-((((R)-2-hydroxy-2-(8-hydroxy-2-oxo-1,2-dihydroquinolin-5-yl)ethyl)amino)methyl)-benzamido)methyl)thiophen-2-yl)phenyl)-2-hydroxy-2-phenylacetate] | > 3 nM | < 0.3 nM |
| Cc1cc(C(=O)NCc2ccc(-c3cccc([C@](O)(C(=O)OCC4CCN(Cc5ccccc5)CC4)c4ccccc4)c3)s2)ccc1CNC[C@H](O)c1ccc(O)c2[nH]c(=O)ccc12 [Compound 1S, (1-Benzylpiperidin-4-yl)methyl (S)-2-hydroxy-2-(3-(5-((4-((((R)-2-hydroxy-2-(8-hydroxy-2-oxo-1,2-dihydroquinolin-5-yl)ethyl)amino)methyl)-3-methylbenzamido)methyl)thiophen-2-yl)phenyl)-2-phenylacetate] | 0.3 to 3 nM | < 0.3 nM |
| O=C(NCc1ccc(-c2cccc([C@](O)(C(=O)OCC3CCN(Cc4ccccc4)CC3)c3ccccc3)c2)s1)c1ccc(CNC[C@H](O)c2ccc(O)c3[nH]c(=O)ccc23)s1 [Compound 1T, (1-Benzylpiperidin-4-yl)methyl (S)-2-hydroxy-2-(3-(5-((5-((((R)-2-hydroxy-2-(8-hydroxy-2-oxo-1,2-dihydroquinolin-5-yl)ethyl)amino)methyl)thiophene-2-carboxamido)methyl)thiophen-2-yl)phenyl)-2-phenylacetate] | 0.3 to 3 nM | 0.3 to 3 nM |
